Key:
[1] = target: T1, A1 receptor in DDT1 cells (Mesocricetus auratus, UniProt A0A1U8BVR4); assay: cAMP assay (SPA) in DDT1 cells, forskolin-induced cAMP; assay type: cell-based, hamster; settings: forskolin 5 μM; for Camp: rolipram 50 μM, 10 min 37° C., normalized to the full agonist CPA
T1 construct: endogenous in cells; host or cells: DDT1 cells (hamster vas deferens smooth muscle cell line): membranes in A1 and A3, whole cells in A4
T1 sequence (A0A1U8BVR4 1-326): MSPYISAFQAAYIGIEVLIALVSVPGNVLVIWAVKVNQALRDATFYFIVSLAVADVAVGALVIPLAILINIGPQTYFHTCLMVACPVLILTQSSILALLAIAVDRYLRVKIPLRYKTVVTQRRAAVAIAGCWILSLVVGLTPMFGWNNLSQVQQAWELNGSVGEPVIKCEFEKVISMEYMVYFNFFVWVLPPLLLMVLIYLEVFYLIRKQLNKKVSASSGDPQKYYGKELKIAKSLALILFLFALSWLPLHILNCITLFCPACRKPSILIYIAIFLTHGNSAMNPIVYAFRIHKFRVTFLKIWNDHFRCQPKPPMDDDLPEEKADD
Method: (§1) DDT cells (hamster vas deferens smooth muscle cell line) were grown as monolayers in petri dishes using Dulbecco's Modified Eagle's Medium (DMEM) containing […] amphotericin B, 100 U ml^−1 penicillin G, 0.1 mg ml^−1 streptomycin sulfate and 5% fetal bovine serum in a humidified atmosphere of 95% air and 5% CO2. Cells were subcultured twice weekly by dispersion in Hank's Balanced Salt Solution (HBSS) without the divalent cations and containing 1 mM EDTA. The cells were then seeded in growth medium at a density of 1.2×10^5 cells per plate and experiments were performed 4 days later at approximately one day preconfluence.
A scintillation proximity assay (SPA) using rabbit antibodies directed at cAMP using an added tracer of adenosine 3′,5′-cyclic phosphoric acid 2′-O-succinyl-3-[^125I]iodotyrosine methyl ester and fluoromicrospheres containing anti-rabbit specific antibodies as described by Amersham Pharmacia Biotech (Biotrak cellular communication assays). Briefly, DDT1 cells were cultured in clear bottomed 96 well microtiter plates with opaque wells at concentrations between 10^4 to 10^6 cells per well in 40 μl of HBSS at 37° C. (5% CO2 and 95% humidity). The partial or full A1 agonists (5 μl) of this invention were incubated at various concentrations with the DDT1 cells in the presence of rolipram (50 μM), and 5 μM forskolin for 10 min at 37° C. The cells were immediately lysed by treatment 5 μl of 10% dodecyltrimethylammonium bromide followed by shaking using microplate shaker. After incubation of the plate for 5 minutes, an immunoreagent solution (150 μl containing equal volumes of tracer, antiserum, and SPA fluorospheres) was added to each well followed by sealing the plate. After 15-20 h at 23° C., the amount of bound [^125I] cAMP to the fluoromicrospheres was determined by counting in a microtitre plate scintillation counter for 2 minutes. Comparison of counts with standard curves generated for cAMP using a similar protocol afforded the cAMP present after cell lysis.

A1 receptor [2] = target: T2, A1 receptor (Sus scrofa, UniProt I3LEN5); assay: Competitive binding assay, pig striatum membranes, [3H]CPX; settings: pig striatal membranes, antagonist [3H]CPX 2 nM, 23 C, 2 h
T2 construct: from tissue; host or cells: pig striatum membranes
T2 sequence (I3LEN5 1-326): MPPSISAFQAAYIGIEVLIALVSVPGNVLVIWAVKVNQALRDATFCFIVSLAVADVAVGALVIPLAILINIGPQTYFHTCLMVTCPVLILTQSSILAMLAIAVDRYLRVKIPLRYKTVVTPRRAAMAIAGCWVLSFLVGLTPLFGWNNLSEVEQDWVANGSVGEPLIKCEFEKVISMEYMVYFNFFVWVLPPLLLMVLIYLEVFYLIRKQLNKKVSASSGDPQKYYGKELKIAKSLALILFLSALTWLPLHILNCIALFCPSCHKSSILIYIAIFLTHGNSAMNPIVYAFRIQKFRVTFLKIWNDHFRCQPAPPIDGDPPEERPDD
Method: (§2) Pig striatum were prepared by homogenation in 50 mM Tris buffer (5× volume of tissue mass pH=7.4). After centrifugation at 19,000 rpm for 25 minutes at 4° C., the supernatant was discarded, and the process was repeated twice. Compositions of this invention were assayed to determine their affinity for the A1 receptor in a pig striatum membrane prep or a DDT1 membrane prep. Briefly, 0.2 mg of pig striatal membranes or DDT1 cell membranes were treated with adenosine deaminase and 50 mM Tris buffer (pH=7.4) followed by mixing. To the pig membranes was added 2 μL of serially diluted DMSO stock solution of the compounds of this invention at concentrations ranging from 100 microM to 10 nM. The control received 2 microL of DMSO alone, then the antagonist [^3H] 8-cyclopentylxanthine (CPX) for pig striatum or the agonist [^3H] 2-chloro-6-cyclopentyladenosine (CCPA) for DDT1 membranes in Tris buffer (50 mM, pH of 7.4) was added to achieve a final concentration of 2 nM. After incubation at 23 C for 2 h, then the solutions were filtered using a membrane harvester using multiple washing of the membranes (3×). The filter disks were counted in scintillation cocktail affording the amount of displacement of tritiated CPX or by the competitive binding compositions of this invention. Greater than a 5 point curve was used to generate Ki's and the number of experiments is indicated in the column marked in Table 1, below: […]

A1 AdoR = target: T3, A1 AdoR (Mesocricetus auratus, UniProt A0A1U8BVR4); assay: [35S]GTPγS binding assay (A1-agonist stimulated), DDT1 membranes; assay type: biochemical, hamster; settings: stimulated [35S]GTPγS binding normalized to the full agonist CPA
T3 construct: endogenous in cells; host or cells: DDT1 cells (hamster vas deferens smooth muscle cell line): membranes in A1 and A3, whole cells in A4
T3 sequence (A0A1U8BVR4 1-326): T1 sequence (A0A1U8BVR4 1-326)
Method: as §1
(§3) Attached cells were washed twice with HBSS (2×10 ml), scraped free of the plate with the aid of a rubber policeman in 5 ml of 50 mM Tris-HCl buffer pH 7.4 at 4° C. and the suspension homogenized for 10 s. The suspension was then centrifuged at 27,000×g for 10 min. The pellet was resuspended in homogenization buffer by vortexing and centrifuged as described above. The final pellet was resuspended in 1 vol of 50 mM Tris-HCl buffer pH 7.4 containing 5 mM MgCl2 for A1 AdoR assays. For the [^35S]GTPγS binding assay the final pellet was resuspended in 50 mM Tris-HCl pH 7.4 containing 5 mM MgCl2, 100 mM NaCl and 1 mM dithiothreitol. This membrane suspension was then placed in liquid nitrogen for 10 min, thawed and used for assays. The protein content was determined with a Bradford™ Assay Kit using bovine serum albumin as standard.
A1-agonist stimulated [^35S] GTPγS binding was determined by a modification of the method described by Giersckik et al. (1991) and Lorenzen et al. (1993). […] Nonspecific binding was determined by the addition of 10 μM GTPγS. […] Previous reports have shown that agonist stimulated [^35S]GTPγS binding was dependent on the presence of GDP (Gierschik et al., 1991; Lorenzen et al., 1993; Traynor & Nahorski, 1995). […] In saturation experiments, 0.5 nM [^35S]GTPγS was incubated with 0.5-1000 nM GTPγS. At the end of the incubation, each suspension was filtered and the retained radioactivity determined as described above.

A1 receptor [3] = target: T4, A1 receptor (Mesocricetus auratus, UniProt A0A1U8BVR4); assay: Competitive binding assay, DDT1 cell membranes, [3H]CCPA; parameters: species or system hamster; settings: DDT1 membrane prep, agonist [3H]CCPA 2 nM, 23 C, 2 h
T4 construct: endogenous in cells; host or cells: DDT1 cells (hamster vas deferens smooth muscle cell line): membranes in A1 and A3, whole cells in A4
T4 sequence (A0A1U8BVR4 1-326): T1 sequence (A0A1U8BVR4 1-326)
Method: as §1, §3, §2

| Structure (SMILES) | effect on forskolin induced cAMP generation [1] | Camp [1] | Ki (A1 receptor [2]) | GTP[…]S (A1 AdoR) | Ki (A1 receptor [3]) |
| --- | --- | --- | --- | --- | --- |
| OC[C@H]1O[C@@H](n2cnc3c(NC4CCCC4)ncnc32)[C@H](O)[C@@H]1O [CPA, N-6-cyclopentyladenosine, reference compound] | diminished the amount of forskolin induced cAMP generation back to basal levels | 107% |  |  |  |
| CSC[C@H]1O[C@@H](n2cnc3c(N[C@@H]4CCOC4)ncnc32)[C@H](O)[C@@H]1O [Compound 7, 2-{6-[((3R)oxolan-3-yl)amino]purin-9-yl}(4S,5S,2R,3R)-5-(methylthiomethyl)oxolane-3,4-diol] |  |  | 0.222 µM |  |  |
| CCSC[C@H]1O[C@@H](n2cnc3c(N[C@@H]4CCOC4)ncnc32)[C@H](O)[C@@H]1O [Compound 8, 2-{6-[((3R)oxolan-3-yl)amino]purin-9-yl}(4S,5S,2R,3R)-5-[(Ethylthio)methyl]oxolane-3,4-diol] |  | 37% |  | 104% |  |
| CC(C)SC[C@H]1O[C@@H](n2cnc3c(N[C@@H]4CCOC4)ncnc32)[C@H](O)[C@@H]1O [Compound 10, 2-{6-[((3R)oxolan-3-yl)amino]purin-9-yl}(4S,5S,2R,3R)-5-[(Methylethylthio)methyl]oxolane-3,4-diol] |  |  | 0.188 µM |  |  |
| O[C@@H]1[C@H](O)[C@@H](CSc2ccccc2)O[C@H]1n1cnc2c(N[C@@H]3CCOC3)ncnc21 [Compound 11, 2-{6-[((3R)oxolan-3-yl)amino]purin-9-yl}(4S,5S,2R,3R)-5-(phenylthiomethyl)oxolane-3,4-diol] |  |  | 0.044 µM |  |  |
| COc1ccc(SC[C@H]2O[C@@H](n3cnc4c(N[C@@H]5CCOC5)ncnc43)[C@H](O)[C@@H]2O)cc1 [Compound 12, 2-{6-[((3R)oxolan-3-yl)amino]purin-9-yl}(4S,5S,2R,3R)-5-[(4-Methoxyphenylthio)methyl]oxolane-3,4-diol] |  | −9% |  | 52% | 0.82 µM |
| O[C@@H]1[C@H](O)[C@@H](CSc2ccc(Cl)cc2)O[C@H]1n1cnc2c(N[C@@H]3CCOC3)ncnc21 [Compound 13, 2-{6-[((3R)oxolan-3-yl)amino]purin-9-yl}(4S,5S,2R,3R)-5-[(4-chlorophenylthio)methyl]oxolane-3,4-diol] |  | 30% |  | 69% |  |
| O[C@@H]1[C@H](O)[C@@H](CSc2ccc(F)cc2)O[C@H]1n1cnc2c(N[C@@H]3CCOC3)ncnc21 [Compound 14, 2-{6-[((3R)oxolan-3-yl)amino]purin-9-yl}(4S,5S,2R,3R)-5-[(4-fluorophenylthio)methyl]oxolane-3,4-diol] |  | 47% |  | 61% | 0.363 µM |
| Cc1ccc(SC[C@H]2O[C@@H](n3cnc4c(N[C@@H]5CCOC5)ncnc43)[C@H](O)[C@@H]2O)cc1 [Compound 15, 2-{6-[((3R)oxolan-3-yl)amino]purin-9-yl}(4S,5S,2R,3R)-5-[(4-methylphenylthio)methyl]oxolane-3,4-diol] |  | 22% |  | 48% | 0.922 µM |
| O[C@@H]1[C@H](O)[C@@H](CSc2ccc(C(F)(F)F)cc2)O[C@H]1n1cnc2c(N[C@@H]3CCOC3)ncnc21 [Compound 16, 2-{6-[((3R)oxolan-3-yl)amino]purin-9-yl}(4S,5S,2R,3R)-5-[(4-(trifluoromethyl)phenylthio)methyl]oxolane-3,4-diol] |  | 22% |  | 31% | 7.7 µM |
| COc1ccccc1SC[C@H]1O[C@@H](n2cnc3c(N[C@@H]4CCOC4)ncnc32)[C@H](O)[C@@H]1O [Compound 17, 2-{6-[((3R)oxolan-3-yl)amino]purin-9-yl}(4S,5S,2R,3R)-5-[(2-Methoxyphenylthio)methyl]oxolane-3,4-diol] |  | 18% |  | 52% | 0.947 µM |

Reference: patent publication US20050054605A1, “Partial or full A1 agonists - N6 heterocyclic 5' thio substituted adenosine derivatives” (priority 1999, published 2005)
